{"source": "patent US5064637A", "about": "“Substituted sulfonamide derivatives which inhibit allergic reactions” (Board of Regents, The University of Texas System, priority 1989, dated 1991)", "key": {"[1]": {"test_system": "IgE to SM (N^4 -SMX determinants)", "conditions": "cited from earlier work"}, "IgG to SMX [2]": {"test_system": "IgG to SMX", "assay": "Example 1: inhibition of IgG binding, ELISA, serum preincubated overnight with inhibitor", "design": "species or system human", "conditions": "for inhibition of IgG binding (in words): serum dilutions 1:40, 1:80, 1:160; for Reduction in percent binding: 20 microliter of 10 mg/ml inhibitor to 180 microliter serum, overnight", "procedure": "This experiment was performed to determine the amount of binding inhibition achieved with various inhibitory agents. […] The experiments were performed in 96-well microtiter plates having 8 rows\ndesignated A-H, and 12 columns designated 1-12. Each well of the microtiter plate was given a designation in accordance with the above grid system. All samples were diluted in phosphate buffered saline (PBS) to the designated dilution factor. The serum dilution levels used in this study were 1:40, 1:80 and 1:160, v/v.\nA sample of each serum dilution was preincubated overnight with a IgG binding inhibitor selected from Table 2. A 2o-lambda (mioroliter) volume from a lo mg/ml solution of the selected inhibitor was added to a 180 lambda volume of the particular serum sample.\nOne hundred milligrams (I00 mg) of each of the listed compounds was weighed out and added to a 10 ml volume of 100% PBS so as to achieve a final concentration of 10 mg/ml by weight of the inhibitor.\nIn accordance with the aforedescribed system, the wells at Row A, columns 1 and 2 of the microtiter plate, received 100 microliters of phosphate buffered saline as a blank. Row A, columns 3 and 4, received normal serum diluted 1:40 in PBS, and served as a negative control. Row A, columns 5 and 6 received -00 microliters of a positive serum (i.e., serum sample positive for IgG to SMX) diluted -:40. Row A, columns 7 and 8, received positive serum diluted at 1:80. Similarly, Row A, columns 9 and 10, received 100 microliters positive serum diluted at 1:160. […] The completed microtiter plate consisted of the following sample distribution (see Table 3).\nThe present invention was tested using a modified ELISA assay. The specific ELISA used employs the following reagents, standards and antibodies."}, "IgG to SMX [3]": {"test_system": "IgG to SMX", "assay": "Example 2: hapten inhibition of IgG binding, ELISA, no preincubation", "design": "species or system human", "conditions": "final serum dilution 1:80", "procedure": "The assay was set up using a 96 well microtiter plate. None of the serum samples were preincubated with inhibitor. Serum used was positive (+) for IgG to SMX, and was used at a final dilution of […] for all wells.\nA variety of binding inhibitors were employed at varying concentrations.\nA 50 microliter volume of each numerically designated inhibitor was added each well of the plate. A 50 microliter volume of serum (1:40 dilution) positive to IgG to SMX was then added to each well. The final dilution of serum in each was then 1:80.\nThe microtiter plate was then shaken slightly to mix the contents of each well and then the standard ELISA assay was performed. The plate was then allowed to incubate for 2 hours at room temperature. The plates were then washed and the OD readings taken for each well.\nPercent inhibition was then calculated for each sample on the basis of decrease in OD."}, "Ig to SMX": {"test_system": "Ig to SMX", "assay": "Hapten inhibition of Ig binding to SMX-HSA (RAST for IgE, ELISA for IgG, IgA, IgM)", "design": "species or system human", "conditions": "free inhibitor, specificity check", "excerpt": "SMX-HSA was used in radioallergoasorbent test (RAST) assays for IgE and ELISA assays for IgG, IgA, and IgM."}, "IgG to SMX [4]": {"test_system": "IgG to SMX", "assay": "Example 3: inhibition studies, ELISA, serum preincubated overnight with inhibitor", "type": "binding, human", "conditions": "serum 1:40", "procedure": "This study was conducted to confirm results on binding inhibition obtained in Example 2. Two positive serums (i.e., positive for IgG to SMX) were employed, including the positive serum used in Examples 1 and 2. PBS (phosphate buffered saline) and a normal serum were also tested in this study.\nAll serum used were at a 1:40 final dilution. Serum was diluted in PBS.\nSeveral binding inhibitors at various dilutions were used. The particular inhibitors and the dilutions thereof examined appear in Table 8, along with their numerical designations.\nPositive serum samples were first preincubated overnight with 50 microliter of the numerically designated inhibitors (10 mg/ml inhibitor solution - See Example I).\nA standard ELISA assay was conducted using a 96 well microtiter plate as described for Example I. Row A, wells 3 and 4, received normal serum diluted 1:40 in PBS. Other wells received 10 microliter of positive serum A (Row A, well 5 through Row F, well 6) or positive serum B (Row F, well 7 through Row H, well 6) at a 1:40 dilution in PBS.\nThat percent binding inhibition obtained for each sample appears at Table 10."}}, "data": [{"compound": "Cc1ccnc(NS(=O)(=O)c2ccc(N)cc2)n1", "note": "[sulfamerazine]", "values": [{"measurement": "inhibition of IgE binding of one highly reactive serum (in words)", "setting": "[1]", "value": "significantly inhibited"}]}, {"compound": "Cc1cc(NS(=O)(=O)c2ccc(N=Nc3cc(CC(N)C(=O)O)ccc3O)cc2)no1", "note": "(centres unmarked) [SMX-Tyrosine]", "values": [{"measurement": "inhibition of IgG binding (in words)", "setting": "IgG to SMX [2]", "value": "significantly inhibit binding"}, {"measurement": "% Inhibition", "setting": "IgG to SMX [3]; inhibitor 0.1 mg/ml", "value": 51, "unit": "%"}, {"measurement": "% Inhibition", "setting": "IgG to SMX [3]; inhibitor 0.3 mg/ml", "value": 54, "unit": "%"}, {"measurement": "% Inhibition", "setting": "IgG to SMX [3]; inhibitor 1 mg/ml", "value": 57, "unit": "%"}, {"measurement": "% Inhibition", "setting": "IgG to SMX [3]; inhibitor 3 mg/ml", "value": 70, "unit": "%"}, {"measurement": "% Inhibition", "setting": "IgG to SMX [3]; inhibitor 10 mg/ml", "value": 59, "unit": "%"}]}, {"compound": "Sulfamerazine-Histidine", "values": [{"measurement": "% Inhibition", "setting": "IgG to SMX [3]; inhibitor 10 mg/ml", "value": 35, "unit": "%"}]}, {"compound": "SMX-Imidazole", "values": [{"measurement": "% Inhibition", "setting": "IgG to SMX [3]; inhibitor 10 mg/ml", "value": 61, "unit": "%"}]}, {"compound": "Sulfamethizole-histidine [Sulfamethazole-histidine]", "values": [{"measurement": "% Inhibition", "setting": "IgG to SMX [3]; inhibitor 10 mg/ml", "value": 7, "unit": "%"}]}, {"compound": "N^4 -sulfamethoxazoyl-poly-L-tyrosine [SMX-poly-L-tyrosine]", "values": [{"measurement": "inhibition of IgG binding (in words)", "setting": "IgG to SMX [2]", "value": "significantly inhibit binding"}, {"measurement": "% Inhibition", "setting": "IgG to SMX [3]; inhibitor 0.1 mg/ml", "value": 0, "unit": "%"}, {"measurement": "% Inhibition", "setting": "IgG to SMX [3]; inhibitor 0.3 mg/ml", "value": 2, "unit": "%"}, {"measurement": "% Inhibition", "setting": "IgG to SMX [3]; inhibitor 1 mg/ml", "value": 24, "unit": "%"}, {"measurement": "% Inhibition", "setting": "IgG to SMX [3]; inhibitor 3 mg/ml", "value": 46, "unit": "%"}, {"measurement": "% Inhibition", "setting": "IgG to SMX [3]; inhibitor 10 mg/ml", "value": 50, "unit": "%"}]}, {"compound": "N^4 -sulfamethoxazoyl-L-histidine [SMX-Histidine]", "values": [{"measurement": "inhibition of antibody binding to SMX-HSA (in words)", "setting": "Ig to SMX; listed as N^4 -sulfamethoxazoyl histidine", "value": "among the most active"}, {"measurement": "inhibition of antibody binding to SMX-HSA (in words)", "setting": "Ig to SMX; listed as SMX-HD", "value": "inhibition of binding"}, {"measurement": "inhibition of IgG binding (in words)", "setting": "IgG to SMX [2]", "value": "significant reduction in binding at the 1:80 and I:160 serum dilution, but none at the 1:40 dilution"}, {"measurement": "% Inhibition", "setting": "IgG to SMX [3]; inhibitor 10 mg/ml", "value": 54, "unit": "%"}]}, {"compound": "Cc1cc(NS(=O)(=O)c2ccc(N)cc2)no1", "note": "[SMX, Sulfamethoxazole, reference compound]", "values": [{"measurement": "inhibition of antibody binding to SMX-HSA (in words)", "setting": "Ig to SMX", "value": "also inhibited binding, but were usually less efficient"}, {"measurement": "inhibition of IgE binding of one highly reactive serum (in words)", "setting": "[1]", "value": "significantly inhibited"}]}, {"compound": "SMX-Tryptophan", "values": [{"measurement": "% Inhibition", "setting": "IgG to SMX [3]; inhibitor 10 mg/ml", "value": 52, "unit": "%"}]}, {"compound": "Nc1ccc(S(=O)(=O)O)cc1", "note": "[sulfanilic acid]", "values": [{"measurement": "inhibition of IgE binding of one highly reactive serum (in words)", "setting": "[1]", "value": "not"}]}, {"compound": "Sulfanilic-Histidine", "values": [{"measurement": "% Inhibition", "setting": "IgG to SMX [3]; inhibitor 10 mg/ml", "value": 60, "unit": "%"}]}, {"compound": "SMX-Lysine", "values": [{"measurement": "% Inhibition", "setting": "IgG to SMX [3]; inhibitor 10 mg/ml", "value": 51, "unit": "%"}]}, {"compound": "COc1cc(Cc2cnc(N)nc2N)cc(OC)c1OC", "note": "[Trimethoprim]", "values": [{"measurement": "inhibition of IgE binding of one highly reactive serum (in words)", "setting": "[1]", "value": "not"}]}, {"compound": "COC(=O)C(N)Cc1ccc(O)c(N=Nc2ccc(S(=O)(=O)Nc3cc(C)on3)cc2)c1", "note": "(centres unmarked) [SMX-Tyrosine Methyl ester]", "values": [{"measurement": "inhibition of IgG binding (in words)", "setting": "IgG to SMX [2]", "value": "considerable inhibition at the 1:40 serum dilution only"}, {"measurement": "% Inhibition", "setting": "IgG to SMX [3]; inhibitor 10 mg/ml", "value": 32, "unit": "%"}]}, {"compound": "CC1(C)SC(C(NC(=O)Cc2ccccc2)C(=O)NCc2ccccc2)NC1C(=O)O", "note": "(centres unmarked) [Inhibitor 28]", "values": [{"measurement": "% Reduction in OD", "setting": "IgG to SMX [4]; inhibitor 10 mg/ml (Table 8), serum A or B not stated", "value": 0, "unit": "%"}]}, {"compound": "Cc1nnc(NS(=O)(=O)c2ccc(N)cc2)s1", "note": "[sulfamethizole]", "values": [{"measurement": "inhibition of IgE binding of one highly reactive serum (in words)", "setting": "[1]", "value": "significantly inhibited"}]}, {"compound": "Cc1cc(NS(=O)(=O)c2ccc(N=Nc3cc(CC(N)C(=O)O)ccc3O)cc2)no1", "note": "(centres unmarked) [Inhibitor 3]", "values": [{"measurement": "Reduction in percent binding", "setting": "IgG to SMX [2]; serum dilution 1:40", "value": 28, "unit": "%"}, {"measurement": "Reduction in percent binding", "setting": "IgG to SMX [2]; serum dilution 1:80", "value": 50, "unit": "%"}, {"measurement": "Reduction in percent binding", "setting": "IgG to SMX [2]; serum dilution 1:160", "value": 42, "unit": "%"}, {"measurement": "% Reduction in OD", "setting": "IgG to SMX [4]; inhibitor 0.1 mg/ml (Table 8)", "value": 32, "unit": "%"}]}]}
